Among the data in PMC6155222, “3-Substituted N-Benzylpyrazine-2-carboxamide Derivatives: Synthesis, Antimycobacterial and Antibacterial Evaluation” (Molecules : A Journal of Synthetic Chemistry and Natural …, 2017) are Log k and MIC values, retold here.

In brackets after ≈: the same amount, converted by molar mass. Like-named read-outs stand apart in the source and are kept apart here.

A short description of data set [1]: Determination of lipophilicity by RP-HPLC (log k). The conditions noted are these: RP-HPLC capacity factor, MeOH 70% / H2O 30%, C18, 30 °C.
Experimental: Log k was determined using an Agilent Technologies 1200 SL liquid chromatograph with Diode-array Detector SL G1315C (Agilent Technologies Inc., Colorado Springs, CO, USA), with pre-column ZORBAX XDB-C18 5 μm, 4 mm × 4 mm, Part No. 7995118-504 (Agilent Technologies Inc.) and column ZORBAX Eclipse XDB-C18 5 μm, 4.6 mm × 250 mm, Part No. 7995118-585 (Agilent Technologies Inc.). The separation process was controlled by Agilent ChemStation, version B.04.02, extended by a spectral module (Agilent Technologies Inc.). The mobile phase consisted of MeOH (HPLC grade, 70%) and H2O (HPLC-Milli-Q Grade, 30%).
The flow rate was 1.0 mL/min, samples were injected in a volume of 20 μL, and the column temperature was 30 °C. A value of 210 nm as the detection wavelength and 270 nm as the monitor wavelength were used. Retention times (tR) were measured in minutes. The dead time of the system (tD) was determined as the retention time of the KI methanol solution. Capacity factors k for individual compounds were calculated according to the formula k = (tR − tD)/tD. Log k, calculated from the capacity factor k, as used as the lipophilicity index converted to log scale.
Data set [2] relates to Staphylococcus aureus CCM 4516/08. Description: Antibacterial microdilution broth method. As to conditions: CCM4516, 24 h, read-out: MIC after 24 h S. aureus. The class given is cell-based. The procedure:
(§1) Microdilution broth method. Antibacterial evaluation was performed against eight bacterial strains from the Czech Collection of Microorganisms (Brno, Czech Republic) (Staphylococcus aureus CCM 4516/08, Escherichia coli CCM 4517, Pseudomonas aeruginosa CCM 1961) or clinical isolates from the Department of Clinical Microbiology, University Hospital and Faculty of Medicine in Hradec Králové, Charles University in Prague, Czech Republic (Staphylococcus aureus H 5996/08-methicilin resistant (MRSA), Staphylococcus epidermidis H 6966/08, Enterococcus sp. J 14365/08, Klebsiella pneumoniae D 11750/08, Klebsiella pneumoniae J 14368/08-ESBL positive). All strains were subcultured on Mueller-Hinton agar (MHA) (Difco/Becton Dickinson, Detroit, MI, USA) at 35 °C and maintained on the same medium at 4 °C. The compounds were dissolved in DMSO, and the antibacterial activity was determined in Mueller-Hinton liquid broth (Difco/Becton Dickinson), and buffered to pH 7.0. Controls consisted of medium and DMSO alone. […] The minimum inhibitory concentration (MIC), defined as the minimum concentration to prevent the visible growth compared to control, was determined after 24 and 48 h of static incubation at 35 °C. The standards were neomycin, bacitracin, penicillin G, ciprofloxacin, and phenoxymethylpenicillin.
For orientation: Dilution methods test growth across graded concentrations, often in twofold steps.

Data set [3] relates to Staphylococcus epidermidis H 6966/08. Description: Antibacterial microdilution broth method. It counts as cell-based. As to conditions: read-out: MIC after 24 h S. epidermidis. The procedure: as §1
The test system of data set [4] is Staphylococcus aureus H 5996/08-methicilin resistant (MRSA). Description: Antibacterial microdilution broth method. The class given is cell-based. As to conditions: 24 h, read-out: MIC after 24 h MRSA. On the procedure:
as §1

Data set [5] relates to Mycobacterium smegmatis CCM 4622 (ATCC 607). Put plainly: Antimycobacterial screening, microdilution broth panel method with resazurin. It counts as cell-based. As to conditions: Mycolicibacterium smegmatis, 48 h + 4 h. On the procedure: An antimycobacterial assay was performed with fast growing Mycobacterium smegmatis CCM 4622 (ATCC 607) from the Czech Collection of Microorganisms (Brno, Czech Republic). The technique used for activity determination was a microdilution broth panel method using 96-well microtitration plates. The culturing medium was Middlebrook 7H9 (MB) broth (Sigma-Aldrich), enriched with 0.4% of glycerol (Sigma-Aldrich) and 10% of Middlebrook OADC growth supplement (Himedia, Mumbai, India). Tested compounds were dissolved in DMSO (Sigma-Aldrich), and the MB broth was then added to obtain a concentration of 2000 μg·mL^−1. Standards used for activity determination were isoniazid (INH), rifampicin (RIF), and ciprofloxacin (CPX) (Sigma-Aldrich). Final concentrations were reached by binary dilution and the addition of mycobacterial suspension, and were set as 500, 250, 125, 62.5, 31.25, 15.625, 7.81, and 3.91 μg·mL^−1, except for the standards of ciprofloxacin and rifampicin, where the final concentrations were 12.5, 6.25, 3.125, 1.56, 0.78, 0.39, 0.195, and 0.098 μg·mL^−1. […] Plates were also sealed with polyester adhesive film and incubated in the dark at 37 °C, without agitation. The addition of 0.01% solution of resazurin sodium salt followed after 48 h. This stain was prepared by dissolving resazurin sodium salt (Sigma-Aldrich) in deionised water, producing a 0.02% solution. Then, a 10% aqueous solution of Tween 80 (Sigma-Aldrich) was prepared. Both liquids were mixed up making use of the same volumes and filtered through a syringe membrane filter. Microtitration panels were then incubated for a further 4 h. Antimycobacterial activity was expressed as the minimal inhibition concentration (MIC) and the value was read on the basis of stain colour change (blue colour—active compound; pink colour—not active compound). […] All experiments were conducted in duplicate.

The test system of data set [6] is Mycobacterium tuberculosis H37Rv. Description: Microplate Alamar Blue Assay (MABA), microdilution panel method. The class given is cell-based.
Where [7] appears, read: Staphylococcus epidermidis, H6966/08, 24 h.

As a reminder, the MIC is the smallest concentration in the dilution series that meets the test's criterion for growth inhibition.

`COc1ccc(CNC(=O)c2nccnc2Cl)c(OC)c1` [Compound 4, 3-Chloro-N-(2,4-dimethoxybenzyl)pyrazine-2-carboxamide]: the Log k in data set [1] is −0.095. Further, the MIC in data set [2] was 125 µM (≈ 38.5 µg/mL); in data set [3] (setting [7]), > 500 µM; in data set [4] (Staphylococcus aureus, MRSA), > 500 µM; in data set [5], > 500 µg/mL; in data set [6] (pH 6.6), > 100 µg/mL.
Consider `CO[C@H]1/C=C/O[C@@]2(C)Oc3c(C)c(O)c4c(O)c(c(/C=N/N5CCN(C)CC5)c(O)c4c3C2=O)NC(=O)/C(C)=C\C=C\[C@H](C)[C@H](O)[C@@H](C)[C@@H](O)[C@@H](C)[C@H](OC(C)=O)[C@@H]1C` [RIF, rifampicin, reference compound], for which, in data set [5], the MIC was 0.78 to 1.56 µg/mL.
In the case of `COc1ccc(CNC(=O)c2nccnc2Cl)cc1` [Compound 3, 3-Chloro-N-(4-methoxybenzyl)pyrazine-2-carboxamide], in data set [1], the Log k is on record as −0.202. The MIC came out at 31.2 µM (≈ 8.68 µg/mL) in data set [2]; 250 µM (≈ 69.4 µg/mL) in data set [3] (setting [7]); 125 µM (≈ 34.7 µg/mL) in data set [4] (Staphylococcus aureus, MRSA); 125 µg/mL in data set [5]; 25 µg/mL in data set [6] (pH 6.6); 90 µM in data set [6] (value in parentheses).
On to `O=C(O)c1cn(C2CC2)c2cc(N3CCNCC3)c(F)cc2c1=O` [CPX, ciprofloxacin, reference compound], for which, in data set [5], the MIC fell in the range of 0.098 to 0.195 µg/mL.
In data set [1], `Cc1ccccc1CNC(=O)c1nccnc1Cl` [Compound 1, 3-Chloro-N-(2-methylbenzyl)pyrazine-2-carboxamide] gave a Log k of 0.009. In addition, the MIC was 250 µg/mL in data set [5] and > 100 µg/mL in data set [6] (pH 6.6).
Compound `O=C(NCc1ccc(Cl)c(Cl)c1)c1nccnc1Cl` [Compound 9, 3-Chloro-N-(3,4-dichlorobenzyl)pyrazine-2-carboxamide] showed a Log k in data set [1] of 0.309. The MIC in data set [2] was 62.5 µM (≈ 19.8 µg/mL); in data set [3] (setting [7]) it was 31.2 µM (≈ 9.89 µg/mL); in data set [4] (Staphylococcus aureus, MRSA), 250 µM (≈ 79.1 µg/mL); in data set [5], 250 µg/mL; in data set [6] (pH 6.6), 100 µg/mL.
`O=C(NCc1ccccc1Cl)c1nccnc1NCc1ccccc1Cl` [Compound 5a, N-(2-Chlorobenzyl)-3-((2-chlorobenzyl)amino)pyrazine-2-carboxamide] gave a Log k in data set [1] of 1.542. Moreover, the MIC in data set [5] was > 500 µg/mL; in data set [6] (pH 6.6) it was > 100 µg/mL.
Compound `O=C(NCc1ccc(F)cc1)c1nccnc1NCc1ccc(F)cc1` [Compound 11a, N-(4-Fluorobenzyl)-3-((4-fluorobenzyl)amino)pyrazine-2-carboxamide] registered a Log k in data set [1] of 1.058. Further, the MIC in data set [5] was > 500 µg/mL; in data set [6] (pH 6.6), > 100 µg/mL.
For `O=C(NCc1ccc(F)cc1)c1nccnc1Cl` [Compound 11, 3-Chloro-N-(4-fluorobenzyl)pyrazine-2-carboxamide], the Log k in data set [1] is given as −0.139. The values for the MIC in data set [5] and in data set [6] (pH 6.6) were 250 µg/mL and > 100 µg/mL, respectively.
For `O=C(NCc1ccccc1F)c1nccnc1Cl` [Compound 10, 3-Chloro-N-(2-fluorobenzyl)pyrazine-2-carboxamide], in that order: −0.154, 125 µg/mL and > 100 µg/mL.
Take `O=C(NCc1ccc(C(F)(F)F)cc1)c1nccnc1NCc1ccc(C(F)(F)F)cc1` [Compound 13a, N-(4-(Trifluoromethyl)benzyl)-3-((4-(trifluoromethyl)benzyl)amino)pyrazine-2-carboxamide]: the Log k in data set [1] is 1.593. The MIC is 62.5 µM (≈ 28.4 µg/mL) in data set [2]; > 500 µM in data set [3] (setting [7]); > 500 µM in data set [4] (Staphylococcus aureus, MRSA); > 500 µg/mL in data set [5]; > 100 µg/mL in data set [6] (pH 6.6).
The compound `O=C(NCc1cccc(Cl)c1)c1nccnc1NCc1cccc(Cl)c1` [Compound 6a, N-(3-Chlorobenzyl)-3-((3-chlorobenzyl)amino)pyrazine-2-carboxamide] registered a Log k in data set [1] of 1.515. For the same compound, the minimum inhibitory concentration (MIC) is > 500 µg/mL in data set [5] and > 100 µg/mL in data set [6] (pH 6.6).
On to `O=C(NCc1ccc(C(F)(F)F)cc1)c1nccnc1Cl` [Compound 13, 3-Chloro-N-(4-(trifluoromethyl)benzyl)pyrazine-2-carboxamide], for which the Log k in data set [1] was 0.145. Besides, the MIC in data set [2] was 31.2 µM (≈ 9.87 µg/mL); in data set [3] (setting [7]), 62.5 µM (≈ 19.7 µg/mL); in data set [4] (Staphylococcus aureus, MRSA), 500 µM (≈ 158 µg/mL); in data set [5], > 500 µg/mL; in data set [6] (pH 6.6), > 100 µg/mL.
`O=C(NCc1cccc(C(F)(F)F)c1)c1nccnc1Cl` [Compound 12, 3-Chloro-N-(3-(trifluoromethyl)benzyl)pyrazine-2-carboxamide] yielded a Log k in data set [1] of 0.110. Further, the MIC in data set [5] is 125 µg/mL; in data set [6] (pH 6.6), > 100 µg/mL.
`Cc1ccc(CNC(=O)c2nccnc2NCc2ccc(C)cc2)cc1` [Compound 2a, N-(4-Methylbenzyl)-3-((4-methylbenzyl)amino)pyrazine-2-carboxamide]: the Log k in data set [1] is reported as 1.517. The MIC was > 250 µg/mL in data set [5], 25 µg/mL in data set [6] (pH 6.6) and 72 µM in data set [6] (value in parentheses).
Turning to `O=C(NCc1ccccc1F)c1nccnc1NCc1ccccc1F` [Compound 10a, N-(2-Fluorobenzyl)-3-((2-fluorobenzyl)amino)pyrazine-2-carboxamide], the Log k in data set [1] amounted to 1.108. In addition, the MIC in data set [5] was > 500 µg/mL; in data set [6] (pH 6.6), > 100 µg/mL.
Take `CC1(C)S[C@@H]2[C@H](NC(=O)COc3ccccc3)C(=O)N2[C@H]1C(=O)O` [Penicillin V, phenoxymethylpenicillin, reference compound]: the minimal inhibitory concentration (MIC) in data set [2] is 0.12 µM (≈ 0.042 µg/mL); in data set [3] (setting [7]), 3.9 µM (≈ 1.37 µg/mL); in data set [4] (Staphylococcus aureus, MRSA) it was 62.5 µM (≈ 21.9 µg/mL).
Compound `O=C(NCc1cccc(Cl)c1)c1nccnc1Cl` [Compound 6, 3-Chloro-N-(3-chlorobenzyl)pyrazine-2-carboxamide] came in with a Log k in data set [1] of 0.060. Besides, the figures for the minimum inhibitory concentration (MIC) in data set [5] and in data set [6] (pH 6.6) were 125 µg/mL and 100 µg/mL, respectively.
As to neomycin [reference compound], the MIC in data set [3] (24 h) stood at 7.81 µM; in data set [4], 0.98 µM.
Turning to `O=C(NCc1ccc(Cl)cc1Cl)c1nccnc1Cl` [Compound 8, 3-Chloro-N-(2,4-dichlorobenzyl)pyrazine-2-carboxamide], the Log k in data set [1] is 0.375. Besides, the MIC was 125 µM (≈ 39.6 µg/mL) in data set [2]; 125 µM (≈ 39.6 µg/mL) in data set [3] (setting [7]); 250 µM (≈ 79.1 µg/mL) in data set [4] (Staphylococcus aureus, MRSA); 125 µg/mL in data set [5]; > 100 µg/mL in data set [6] (pH 6.6).
`Cc1ccc(CNC(=O)c2nccnc2Cl)cc1` [Compound 2, 3-Chloro-N-(4-methylbenzyl)pyrazine-2-carboxamide] had a Log k in data set [1] of 0.033. Also, the minimum inhibitory concentration (MIC) was 125 µM (≈ 32.7 µg/mL) in data set [2]; 500 µM (≈ 131 µg/mL) in data set [3] (setting [7]); > 500 µM in data set [4] (Staphylococcus aureus, MRSA); > 500 µg/mL in data set [5]; > 100 µg/mL in data set [6] (pH 6.6).
In data set [1], `O=C(NCc1ccc(Cl)cc1)c1nccnc1Cl` [Compound 7, 3-Chloro-N-(4-chlorobenzyl)pyrazine-2-carboxamide] had a Log k of 0.082. In addition, the results for the minimum inhibitory concentration (MIC) in data set [5] and in data set [6] (pH 6.6) were 500 µg/mL and > 100 µg/mL, respectively.
